Values quoted from earlier work as cited in US4760029A, “Assay for D-1 antagonistic activity of neuroleptic drugs” (Schering Corporation, priority 1984, dated 1988).

Key:
[1] = test system: dopamine stimulated adenylate cyclase; details: J. Pharmacol. Exp. Ther., 226, 462 (1983)
[2] = J. Pharmacol. Exp. Ther., 226, 462 (1983)
[3] = test system: D-2 sites; details: J. Pharmacol. Exp. Ther., 226, 462 (1983)
[4] = test system: D-1 sites; details: Eur. J. Pharmacol. 91, 153(1983)

CN1CCc2cc(Cl)c(O)cc2[C@@H](c2ccccc2)C1 [Compound, R-(+)-8-chloro-2,3,4,5-tetrahydro-3-methyl-5-phenyl-1H-3-benzazepin-7-ol]
blockade of dopamine stimulated adenylate cyclase [1]: potent blockade | prolactinemia [2]: no prolactinemia | displacement of ^3 H-spiperone binding [3]: weak displacement | ability to inhibit ^3 H-cis-(Z)-piflutixol binding [4]: very potent
